For one experiment, the system named is MyD88. The experiment is described as follows: Western blot of MyD88 in oral keratinocytes. The format is cell-based, human. The conditions noted are these: treated with CsA and LPS to simulate the disease, FIG. 35. On the procedure:
(§1) Cell Culture. Normal human oral keratinocytes (NOKSI) and fibroblast (HOF) cells were maintained in Dulbecco […] Eagle's medium (Sigma-Aldrich, St. Louis, MO, USA) supplemented with 10% fetal bovine serum (Atlas Bio-logicals, Fort Collins, CO, USA) and 100 units/mL penicillin and 100 μg/mL streptomycin (LifeTechnologies, Carlsbad, CA, USA). Cells were grown in incubator at 37° C. in a humidified chamber with 5% CO2.
Drugs treatment in cell culture. The cells were treated alone or with different combination of lipopolysaccharide, cyclosporine, phenytoin, and folic acid. All of them were purchased from Sigma-Aldrich (St. Louis, MO, USA). Each of them were used from 0 μg/ml to 40 μg/ml and the optimum concentration were found 10 μg/ml.
Western blot analysis. Cells were seeded in 60 mm plates with a density of 5×10^5 cells per plate and washed briefly with Dulbecco's phosphate-buffered saline (Gibco, Waltham, MA, USA). Whole cell lysates were prepared using RIPA lysis buffer containing protease inhibitor cocktail (Sigma-Aldrich). Total protein concentration was determined using the BCA reagent (Pierce, Waltham, MA, USA). 20 μg of total protein were resolved on sodium dodecyl sulfate-polyacrylamide gel electrophoresis and transferred to polyvinylidenedifluoride membrane and immunoblotted. The blots were incubated for 1 h in 1% bovine serum albumin (BSA) (Sigma-Aldrich) to block the non-specific bindings followed by over-night incubation in primary antibodies (MyD88 and pP65 from Cell Signaling Technology, and human LITAF ThermoFisher Sigma) at 4° C. on shaker. Next day, blots were washed for three times (10 min each) in Tris-buffered saline containing 1% Tween20 (TBST) followed by incubation with secondary antibody (Goat anti-rabbit IgG HRP) with 1:10,000 dilution for 1 h. Following washes, bands were visualized using gel documentation Imaging Systems (BioRad). The band intensities were quantified using software ImageJ (NIH, USA) and relative protein levels were normalized by β-actin (Cell Signaling). To perform the western blot of animal tissue samples, the gingival tissues were collected from both BABLB/c and C57BL/6 mice studies. The soft tissues were separated from the mandibular bone and then crunched. The Bradford assay was performed to measure the protein concentration of each sample. After normalization, 20 μg of whole tissue protein lysate were proceeded for western blot analysis.

The test system of experiment [1] is Collagen type I alpha 1 (Col1a1). Description: Collagen (Col1a1) expression in Human Oral Fibroblasts, QPCR. The class given is cell-based. The conditions noted are these: fibroblasts treated with TGF-β, FIG. 1. On the procedure: as §1
Human Oral Fibroblasts (HOF) cells were seeded in 60 mm plates with a density of 2.5×10^4/cm^2 and treated with condition (CM) media collected from Oral Keratinocytes containing LPS (10 μg/ml), CSA (10 μg/ml), Phenytoin (10 μg/ml), or Folic acid (10 μg/ml) and incubated for 24 hours. The Collagen type I alpha 1 (Col1a1) gene expression was determined by QPCR. HOF cells were treated with rTGF-β, SB-431542 (SB), rTNF-α, or TNF-α inhibitor (TNF-α inh). Quantitative real-time PCR results showing the expression of Col1a1 in HOF cells after the treatment. (p<0.05).

As for Lipopolysaccharide, in the experiment with MyD88, the “MyD88 expression in human oral keratinocytes after disease-simulating treatment” value was “robustly induce MyD88 expression”.

Take TGF-β: the “collagen expression in fibroblasts” value in experiment [1] is “induce collagen expression”.

The values above are taken from US20260000496A1, “MATERIALS AND METHODS FOR DRUG-INDUCED GINGIVAL OVERGROWTH” (Optimed Technology, Inc., priority 2019, published 2026).
